This note sets out measurements from patent US11006626B2, “Compounds for protection of cells” (Sulfateq B.V., priority 2012, dated 2021).

The test system of test [1] is Human Embryo Kidney (HEK) 293 cells. In words: Hypothermia/rewarming injury of HEK cells, trypan blue viability count. The test is classed as cell-based. Conditions: for viability at 0.01 µM / viability at 0.1 µM / viability at 1 µM / viability at 10 µM / viability at 100 µM / viability at 1000 µM: Homo sapiens, HEK293, 24 h, read-out: % cells that survived; for viability at 0.01 µM / viability at 0.1 µM / viability at 1 µM / viability at 10 µM / viability at 100 µM / viability at 1000 µM / % cells that survived: 24 h at 4° C., 24 h rewarming; for % cells that survived, Mean: mean over the tested concentrations.
Description: Human Embryo Kidney (HEK) 293 cells were cultured in DMEM cell culture medium (Life Technologies, 41965-052) supplemented with fetal calf serum, penicillin and streptomycin. Cells were seeded at a density of 0.8-1.2E6 mL-1 in 25 cm2 polystyrene flasks, placed in a 37° C.
The compounds were dissolved in dimethyl sulfoxide (DMSO) to several concentrations. Before commencing experiments, this stock solution was dissolved in pre-warmed DMEM and further diluted to obtain a concentration range from 10 nM-1 mM. Cell culture medium was then replaced by these dilutions and cells were incubated in the presence of the compound for 1 hour. After incubation, lids were closed tightly and flasks were placed in a 4° C. room and cooled for 24 hours. After this cooling period, cells were placed back in the 37° C. incubator with lids closed and were allowed to rewarm for another 24 hours.
After this rewarming period, microscopic images were taken to assess cell morphology (Nikon D5100, Nikon Diaphot-TMD). Cell culture medium was collected and centrifuged (4 minutes, 2000 rpm). The supernatant was collected and pH was immediately measured to prevent equilibration of the pH by the carbonate buffer in the medium, while the pelleted cells were resuspended in 5 mL of PBS. Cells remaining in the flask were washed twice with phosphate buffered saline (PBS) while the washing product was discarded. Subsequently, the cells were trypsinized by addition of 0.5 mL of trypsine and pooled with the resuspended pellet. This cell suspension was then stained at a final concentration of 0.2% trypan blue (Sigma, T8154), followed by manual assessment of viability and cell number on a Bürker-Türk hemocytometer. To conclude the assay, cell culture medium glucose levels were measured (Roche Accutrend Plus) as an indication of metabolic activity. All of these steps were performed with care to prevent mechanical stress to influence or alter the viability of the cells after cooling.
The amount represents the % cells that survived. […] In the control, the same procedure was applied to two badges of HEK cells.

Test [2] relates to porcine hearts. In words: Cold ischemic tolerance of porcine hearts, reperfusion in PhysioHeart platform. Also noted: species or system pig. From the text: This example studies if SUL 109 as additive to standard heart transplantation protocols will help to prolong the maximal cold ischemic protection of porcine hearts. For long term arrest, for example in case of transplantation, a commonly used solution is CUSTODIOL®. With CUSTODIOL® solution it is possible to keep a heart in a cold ischemic state for up to six hours before reperfusion with warm oxygenated blood is necessary.
Two hearts were harvested from slaughterhouse pigs and treated as follows. […] After exsanguinations the sternum was quickly opened and the heart and lungs were removed as a whole. The heart was immediately submersed in an ice cold bath and the aorta was cut proximal to the brachocephalic side branches. A 19 mm cannula was inserted in the aorta and tied off. The carefully de-aired cannulla was used to retrogradely administer cold cardioplegic solution. In the first heart, 2 liters of standard CUSTODIOL® with 5000 IU/1 of heparin added was administered. The second heart was administered 2 liters of CUSTODIOL® with 5000 IU/1 of heparin and 10 ml/l of SUL 109 in 0.9% NaCl at 75 μM. Both hearts were stored in plastic bags filled with the same solutions and transported to the lab on ice at approximately 4° C. Before preparation the hearts were stored at 4° C. for 24 hours. The next day both hearts were prepared to be mounted in the PhysioHeart platform as described in DeHart et al 2011. After de-airing the hearts, retrograde reperfusion of the aorta was started with warm oxygenated blood at 38° C. Both flow of blood and pressure at the aortic root were registered during the experiment.

Test [3] concerns blood platelets. In words: Cold storage of PRP blood platelets, aggregation of thrombocytes after storage. It counts as cell-based. Also noted: key: − means that most of the thrombocytes were aggregated; a + indicates that a few cells were still viable but some cells aggregated; a ++ indicates that almost all cells were viable. Particulars: 30 mM; PRP platelets stored at 4° C.; 264 hours. As for the experimental part: PRP platelets were harvested and 2.1 ml was suspended in Poly Propylene tubes of 5 ml, closed with a stop.
Several compounds according to the invention were added to the blood platelets directly after preparing the PRP plasma and incubated during 10 minutes at 37° C. or 30 minutes at room temperature. The blood platelets with the compound were then stored at 4° C.
A control was stored under shaking conditions at room temperature. Another control was stored at 4° C. without the addition of a compound.
A sample was taken out of each tube after 264 hours after addition of the compound and tested as follows: • The color and coagulation properties were visually analysed. • The thrombocyte cells that survived were counted and it was evaluated whether the thrombocytes were aggregated. • It was evaluated if the thrombocytes still were able to function after stimulation by the addition of ADP or under influence of collagen in a 96 well plate. • The adhesion was evaluated, meaning the ability of the platelets to bind collagen in a 6 well plate preincubated with collagen. • Via an ELISA assay, it was evaluated whether thromboxane was secreted from the platelets. Thromboxane facilitates aggregation and is produced by activated blood platelets.
Table 3 provides an overview of the results of the addition of the compounds to the blood platelets and evaluates the aggregation of the thrombocytes after addition of the compound according to the invention and cooling until 4° C.

The mark [4] stands for this setting: at reperfusion after 24 hours at 4° C., vs. non treated heart.

With `Cc1c(C)c2c(c(C)c1O)CCC(C)(C(=O)N1CCN(CCO)CC1)O2` (stereo not drawn) [SUL - 109, (6-hydroxy-2,5,7,8-tetramethylchroman-2-yl)(4-(2-hydroxyethyl)piperazin-1-yl)methanone], in test [1] (10 nM), the viability at 0.01 µM is 92.6%. Besides, the viability at 0.1 µM in test [1] (100 nM) was 98%. Further, the viability at 1 µM in test [1] (1 μM) was 97%. Moreover, the viability at 10 µM in test [1] (10 μM) stood at 94.9%. The viability at 100 µM in test [1] (100 μM) was 93.7%. Also, the viability at 1000 µM in test [1] (1 mM) turned out to be 87.4%. The “% cells that survived, Mean” value in test [1] was determined as 94%. Also, in test [2] (at reperfusion after 24 hours at 4° C.), the “contraction after defibrillation shocks” value is on record as “weak contractive unpaced pattern”. Moreover, in test [2] (setting [4]), the contractile activity result is “more contractile activity compared to the non treated one” and the vascular resistance entry is on record as “lower vascular resistance”. The compound further had a coronary flow in test [2] (perfusion pressure of 80 mmHg, reperfusion after 24 hours at 4° C.) of 1 lpm. Besides, the “contractive activity of the myocardial tissue” value in test [2] (treated vs. non-treated heart) is recorded as “improved regular contractive activity”.

On to `Cc1c(C)c2c(c(C)c1O)CCC(C)(C(=O)N[C@H](C)CO)O2` (stereo partly drawn) [SUL - 120, 6-hydroxy-N-((R)-1-hydroxypropan-2-yl)-2,5,7,8-tetramethylchroman-2-carboxamide], for which the viability at 0.01 µM in test [1] (10 nM) is 17.6%. In test [1] (100 nM), the viability at 0.1 µM amounted to 65.3%. The viability at 1 µM in test [1] (1 μM) came out at 95.5%. Besides, the viability at 10 µM in test [1] (10 μM) was found to be 91.6%. The viability at 100 µM in test [1] (100 μM) worked out at 88.7%. In test [1] (1 mM), the viability at 1000 µM turned out to be 81.5%. Also, in test [1], the “% cells that survived, Mean” value was determined as 73%. The “Aggregation of blood platelets after storage” value (from here on “Aggregation of blood platelets”) in test [3] is “+”.

As to `Cc1c(C)c2c(c(C)c1O)CCC(C)(C(=O)N1CCC[C@H]1C(=O)O)O2` (single isomer, unassigned) [SUL - 145], the “% cells that survived” value is given as 12.99% in test [1] (10 nM); 28.68% in test [1] (100 nM); 21.43% in test [1] (1 μM); 7.84% in test [1] (10 μM); 78.61% in test [1] (100 μM); 88.08% in test [1] (1 mM). Besides, the “% cells that survived, Mean” value in test [1] is recorded as 40%. The “Aggregation of blood platelets” value in test [3] was “+”.

For `Cc1c(C)c2c(c(C)c1O)CCC(C)(C(=O)N1CCC[C@H]1C(=O)O)O2` (single isomer, unassigned) [SUL - 144], the “% cells that survived” value stood at 4.08% in test [1] (10 nM) and 25.93% in test [1] (10 μM). For the same compound, the viability at 0.1 µM in test [1] (100 nM) amounted to 18.3%. Also, the viability at 1 µM in test [1] (1 μM) worked out at 21.6%. Also, the viability at 100 µM in test [1] (100 μM) was 91%. For the same compound, the viability at 1000 µM in test [1] (1 mM) amounted to 92.6%. For the same compound, the “% cells that survived, Mean” value in test [1] was determined as 42%. Further, the “Aggregation of blood platelets” value in test [3] is on record as “+”.
